The values below come from BindingDB's records for doi:10.1021/jm00100a018 (1992).

Structures can show the parent of a compound that is named as a salt.

The nature of this assay: Concentration tested in vitro to inhibit PAF-induced maximum aggregation (PAF-Antagonistic activity) by 50%.
Consider `COc1cc(CCC(=O)N2CCN(C(=O)c3cc(OC)c(OC)c(OC)c3)CC2)cc(OC)c1OC`, for which it took 73000 nM to reach half-maximal inhibition (IC50).

`N#CC(c1cccnc1)N1CCN(C(=O)CNC(Cc2ccccc2)c2ccccc2)CC1` (configuration not stated): the IC50 (in general, the concentration that gives 50% inhibition) stood at 50 nM. This IC50 lies about 1500-fold lower than the previous one. Then `N#CC(c1cccnc1)N1CCN(C(=O)CNCC(c2ccccc2)c2ccccc2)CC1` (configuration not stated), with 220 nM; and `N#CC(CN1CCN(C(=O)C(c2ccccc2)c2ccccc2)CC1)c1cccnc1` (configuration not stated), with 2300 nM. Then `COc1cc(C(=O)N2CCN(C(=S)c3cccnc3)CC2)cc(OC)c1OC`, with 1300 nM; and `CC(c1cccnc1)N1CCN(C(=O)C(c2ccccc2)c2ccccc2)CC1` (configuration not stated), with 1200 nM; and `N#CC(c1cccc([N+](=O)[O-])c1)N1CCN(C(=O)CC(c2ccccc2)c2ccccc2)CC1` (configuration not stated), with 11000 nM. Regarding `CCCCCCCC(=O)N1CCN(C(C#N)c2cccnc2)CC1` (configuration not stated), the 50% inhibitory concentration (IC50) is 920 nM. `N#CC(c1cccnc1)N1CCN(CCNC(=O)C(c2ccccc2)c2ccccc2)CC1` (configuration not stated) came in with an IC50 of 36 nM. Turning to `N#CC(=C1CCN(C(=O)CC(c2ccccc2)c2ccccc2)CC1)c1cccnc1`, the IC50 was found to be 26 nM. `N#CC(c1cccnc1)N1CCN(C(=O)NC(c2ccccc2)c2ccccc2)CC1` (configuration not stated) displayed a 50% inhibitory concentration (IC50) of 360 nM. On to `O=C(CC(c1ccccc1)c1ccccc1)N1CCN(Cc2cccnc2)CC1`, for which the IC50 is 520 nM. `O=C(c1cccnc1)N1CCN(C(=O)C(c2ccccc2)c2ccccc2)CC1`: the half-inhibitory concentration (IC50) is 23000 nM. Turning to `N#CC1(Nc2cccnc2)CCN(C(=O)CNC(c2ccccc2)c2ccccc2)CC1`, inhibition was half-maximal at 200 nM (IC50). Against the preceding compound, the IC50 is about 120-fold lower. `N#CC(c1cncs1)N1CCN(C(=O)CC(c2ccccc2)c2ccccc2)CC1` (configuration not stated) showed an IC50 of 21 nM. `N#CC(c1cccnc1)N1CCN(C(=O)Cc2ccccc2)CC1` (configuration not stated) yielded an IC50 of 2700 nM. This IC50 is about 130-fold higher than that of the compound before. Then `COc1cc(CC(=O)N2CCN(C(C#N)c3cccnc3)CC2)cc(OC)c1OC` (configuration not stated), with 460 nM; and `N#CC(c1cccnc1)C1CCN(C(=O)CNC(c2ccccc2)c2ccccc2)CC1` (configuration not stated), with 24 nM.

`N#Cc1cccc(C(C#N)N2CCN(C(=O)CC(c3ccccc3)c3ccccc3)CC2)c1` (configuration not stated) returned an IC50 of 7400 nM. This IC50 lies about 310-fold higher than the previous one. `N#CC(c1ccncc1)N1CCN(C(=O)CC(O)(c2ccccc2)c2ccccc2)CC1` (configuration not stated): it took 2.7 nM to reach half-maximal inhibition (IC50).

Compound `CC(C)(C)C(=O)N1CCN(C(C#N)c2cccnc2)CC1` (configuration not stated) gave an IC50 of 5200 nM. Against the preceding compound, the IC50 is about 1900-fold higher. `N#CC1(Nc2cccnc2)CCN(C(=O)CC(c2ccccc2)c2ccccc2)CC1` gave an IC50 of 15 nM. Then `N#CC(c1cccnc1)N1CCN(C(=O)Cc2ccc3ccccc3c2)CC1` (configuration not stated), with 720 nM; and `N#CC(c1cccc(C(F)(F)F)c1)N1CCN(C(=O)CC(c2ccccc2)c2ccccc2)CC1` (configuration not stated), with 9000 nM. In turn, `N#CC(c1cccnc1)N1CCN(C(=O)CCCc2ccccc2)CC1` (configuration not stated) showed an IC50 of 260 nM. `CC(c1ccccc1)N(C)CC(=O)N1CCN(C(C#N)c2cccnc2)CC1` (configuration not stated) had an IC50 of 240 nM.

`N#CC(c1cccnc1)N1CCN(C(=O)C(CCc2ccccc2)c2ccccc2)CC1` (configuration not stated): the concentration for half-maximal inhibition (IC50) was determined as 2600 nM. Compound `N#CC(c1cccnc1)N1CCN(C(=O)Cc2cccc3ccccc23)CC1` (configuration not stated) returned a concentration for half-maximal inhibition (IC50) of 76 nM. Compound `O=C(C(c1ccccc1)c1ccccc1)N1CCN(Cc2cccnc2)CC1` registered an IC50 of 2600 nM.

`N#CC(c1cccnc1)N1CCN(C(=O)C(Cc2ccccc2)c2ccccc2)CC1` (configuration not stated) came in with a half-maximal inhibitory concentration (IC50) of 230 nM.

The compound `O=C(C(c1ccccc1)c1ccccc1)N1CC[N+]([O-])(Cc2cccnc2)CC1` displayed an IC50 of 44000 nM. This IC50 is about 190-fold higher than that of the compound before. Then `N#CC(c1cccnc1)N1CCN(C(=O)CNCCC(c2ccccc2)c2ccccc2)CC1` (configuration not stated), with 86 nM; and `COc1cc(C(=O)N2CCN(C(=O)c3cc(OC)c(OC)c(OC)c3)CC2)cc(OC)c1OC`, with 9400 nM; and `N#CC(c1cccnc1)N1CCN(C(=O)C(c2ccccc2)c2ccccc2)CC1` (configuration not stated), with 10 nM.

The compound `N#CC(c1cccnc1)N1CCN(C(=O)CN(Cc2ccccc2)Cc2ccccc2)CC1` (configuration not stated) showed a half-inhibitory concentration (IC50) of 32 nM. Compared with the last compound, the IC50 is about 3.2-fold higher.

Compound `N#CC(c1cccnc1)N1CCN(C(=O)/C(=C/c2ccccc2)c2ccccc2)CC1` (configuration not stated) yielded a half-maximal inhibitory concentration (IC50) of 7.5 nM. Take `N#CC(c1cccnc1)N1CCN(CC(=O)NCCC(c2ccccc2)c2ccccc2)CC1` (configuration not stated): the IC50 was 240 nM. Turning to `CN(CC(=O)N1CCN(C(C#N)c2cccnc2)CC1)C(c1ccccc1)c1ccccc1` (configuration not stated), half-maximal inhibition (IC50) was put at 60 nM. Compound `N#CC(c1ccncc1)N1CCN(C(=O)CNC(=O)C(c2ccccc2)c2ccccc2)CC1` (configuration not stated) gave a half-maximal inhibitory concentration (IC50) of 680 nM.

`Cn1cccc1C(C#N)N1CCN(C(=O)CC(c2ccccc2)c2ccccc2)CC1` (configuration not stated) came in with an IC50 of 25000 nM.

Turning to `CN(CC(=O)N1CCN(C(C#N)c2cccnc2)CC1)c1ccccc1` (configuration not stated), inhibition was half-maximal at 2800 nM (IC50).

Compound `CN(C)c1ccc(C(C#N)N2CCN(C(=O)CC(c3ccccc3)c3ccccc3)CC2)cc1` (configuration not stated) gave a concentration for half-maximal inhibition (IC50) of 210000 nM. `Cn1ccc(C(C#N)N2CCN(C(=O)CC(c3ccccc3)c3ccccc3)CC2)c1` (configuration not stated) came in with an IC50 of 2600 nM. In the case of `N#CC(c1cccnc1)C1CCN(C(=O)C(c2ccccc2)c2ccccc2)CC1` (configuration not stated), it took 21 nM to reach half-maximal inhibition (IC50). For the compound `N#CC(c1cccnc1)N1CCN(C(=O)CNc2ccccc2)CC1` (configuration not stated), the half-maximal inhibitory concentration (IC50) was 130 nM. Compound `O=C(CC(c1ccccc1)c1ccccc1)N1CCN(C(=O)c2cc[n+]([O-])cc2)CC1` gave an IC50 of 1900 nM. Against the preceding compound, the IC50 is about 15-fold higher.

`NC(=O)C(c1cccnc1)N1CCN(C(=O)C(c2ccccc2)c2ccccc2)CC1` (configuration not stated) had an IC50 of 200000 nM. Then `COc1cc(C(=O)N2CCN(C(=O)c3cccnc3)CC2)cc(OC)c1OC`, with 5200 nM; and `N#CC(c1cccnc1)N1CCN(CCNC(=O)CC(c2ccccc2)c2ccccc2)CC1` (configuration not stated), with 5500 nM. As for `N#CC(c1cccnc1)N1CCN(CCC(c2ccccc2)c2ccccc2)CC1` (configuration not stated), half-maximal inhibition (IC50) was put at 630 nM.

Take `CC(NCC(=O)N1CCN(C(C#N)c2cccnc2)CC1)c1ccccc1` (configuration not stated): the IC50 worked out at 36 nM. The compound `N#CC(c1cccnc1)N1CCN(C(=O)CN(Cc2ccccc2)c2ccccc2)CC1` (configuration not stated) displayed a concentration for half-maximal inhibition (IC50) of 24 nM. This IC50 lies about 1.5-fold lower than the previous one. As for `O=C(CC(c1ccccc1)c1ccccc1)N1CCN(C(=O)c2ccncc2)CC1`, the IC50 is 1900 nM. Regarding `CCCCC(=O)N1CCN(C(C#N)c2cccnc2)CC1` (configuration not stated), the half-maximal inhibitory concentration (IC50) was 2600 nM. `N#CC(c1cccc(Cl)c1)N1CCN(C(=O)CC(c2ccccc2)c2ccccc2)CC1` (configuration not stated) registered an IC50 of 21000 nM. Then `N#CC(c1cccnc1)N1CCN(C(=S)C(c2ccccc2)c2ccccc2)CC1` (configuration not stated), with 23 nM; and `N#CC(c1cccnc1)N1CCN(C(=O)/C=C/c2ccccc2)CC1` (configuration not stated), with 2500 nM; and `Cn1cc(C(C#N)N2CCN(C(=O)CC(c3ccccc3)c3ccccc3)CC2)c2ccccc21` (configuration not stated), with 5700 nM. Take `CC(C#N)(c1cccnc1)N1CCN(C(=O)C(c2ccccc2)c2ccccc2)CC1` (configuration not stated): half-maximal inhibition (IC50) was put at 240 nM.

`N#CC(c1ccncc1)N1CCN(CCNC(c2ccccc2)c2ccccc2)CC1` (configuration not stated) registered a concentration for half-maximal inhibition (IC50) of 36 nM. Against the preceding compound, the IC50 is about 6.7-fold lower.

Consider `COc1cc(C(=O)N2CCN(C(C#N)c3ccccn3)CC2)cc(OC)c1OC` (configuration not stated), for which half-maximal inhibition (IC50) was put at 44000 nM.

`N#CC(c1cccnc1)N1CCN(C(=O)CNc2cccc3ccccc23)CC1` (configuration not stated) returned an IC50 of 2600 nM. The compound `CCCCCCCCCCCCCCCC(=O)N1CCN(C(C#N)c2cccnc2)CC1` (configuration not stated) yielded an IC50 greater than 200000 nM.

In the case of `N#CC(c1ccncc1)N1CCN(C(=O)CCNC(c2ccccc2)c2ccccc2)CC1` (configuration not stated), inhibition was half-maximal at 55 nM (IC50). For `N#CC(c1cccnc1)N1CCN(C(=O)Cc2c[nH]c3ccccc23)CC1` (configuration not stated), half-maximal inhibition (IC50) required 450 nM. Compared with the last compound, the IC50 is about 8.2-fold higher. Then `N#CC(c1cccnc1)N1CCN(C(=O)CNCCCc2ccccc2)CC1` (configuration not stated), with 530 nM. Consider `O=C(CC(c1ccccc1)c1ccccc1)N1CCC(Nc2cccnc2)CC1` [3,3-Diphenyl-1-[4-(pyridin-3-ylamino)-piperidin-1-yl]-propan-1-one; dihydrochloride; hydrate], for which half-maximal inhibition (IC50) required 87 nM. Then `N#CC(c1cccnc1)N1CCC(OC(=O)CC(c2ccccc2)c2ccccc2)CC1` (configuration not stated) [3,3-Diphenyl-propionic acid 1-(cyano-pyridin-3-yl-methyl)-piperidin-4-yl ester; dihydrochloride; hydrate], with 2600 nM. As for `N#CC(c1cccnc1)N1CCN(C(=O)OCC(c2ccccc2)c2ccccc2)CC1` (configuration not stated) [4-(Cyano-pyridin-3-yl-methyl)-piperazine-1-carboxylic acid 2,2-diphenyl-ethyl ester; dihydrochloride; hydrate], the IC50 was 26 nM.

The compound `N#CC(c1cccnc1)N1CCN(C(=O)c2ccccc2)CC1` (configuration not stated) [(4-Benzoyl-piperazin-1-yl)-pyridin-3-yl-acetonitrile; dihydrochloride] returned a concentration for half-maximal inhibition (IC50) of 4800 nM. Compound `COc1cc(C(=O)N2CCN(Cc3cccnc3)CC2)cc(OC)c1OC` [(4-Pyridin-3-ylmethyl-piperazin-1-yl)-(3,4,5-trimethoxy-phenyl)-methanone; dihydrochloride; hydrate] returned a half-maximal inhibitory concentration (IC50) of 17000 nM.

As to `CN(CCCc1ccccc1)CC(=O)N1CCN(C(C#N)c2cccnc2)CC1` (configuration not stated) [(4-{2-[Methyl-(3-phenyl-propyl)-amino]-acetyl}-piperazin-1-yl)-pyridin-3-yl-acetonitrile; dihydrochloride; hydrate], half-maximal inhibition (IC50) was put at 2200 nM.

`COc1cc(C(=O)N2CCN(C(C#N)c3cccnc3)CC2)cc(OC)c1OC` (configuration not stated) [Pyridin-3-yl-[4-(3,4,5-trimethoxy-benzoyl)-piperazin-1-yl]-acetonitrile; dihydrochloride; hydrate] showed an IC50 of 1900 nM. The IC50 values of the last two compounds are within 1.5-fold of each other. In turn, `COc1cc(CCC(=O)N2CCN(C(C#N)c3cccnc3)CC2)cc(OC)c1OC` (configuration not stated) [Pyridin-3-yl-{4-[3-(3,4,5-trimethoxy-phenyl)-propionyl]-piperazin-1-yl}-acetonitrile; dihydrochloride; hydrate] showed a concentration for half-maximal inhibition (IC50) of 400 nM. For `CC(C(=O)N1CCN(C(C#N)c2cccnc2)CC1)(c1ccccc1)c1ccccc1` (configuration not stated) [[4-(2,2-Diphenyl-propionyl)-piperazin-1-yl]-pyridin-3-yl-acetonitrile; dihydrochloride], half-maximal inhibition (IC50) required 1.9 nM. This IC50 is about 210-fold lower than that of the compound before.

Consider `N#CC(c1cccnc1)N1CCN(C(=O)C(Cc2ccccc2)Cc2ccccc2)CC1` (configuration not stated) [[4-(2-Benzyl-3-phenyl-propionyl)-piperazin-1-yl]-pyridin-3-yl-acetonitrile; dihydrochloride; hydrate], for which the half-maximal inhibitory concentration (IC50) was 11 nM. As for `N#CC(c1cccnc1)N1CCN(C(=O)CNCc2ccccc2)CC1` (configuration not stated) [[4-(2-Benzylamino-acetyl)-piperazin-1-yl]-pyridin-3-yl-acetonitrile; dihydrochloride; hydrate], the IC50 turned out to be 240 nM.
